Results published in patent US11834453B2, “Substituted pyrimido[5,4-d]pyrimidines as HER2 inhibitors” (Array BioPharma Inc., priority 2020, dated 2023).
Structures can show the parent of a compound that is named as a salt. Where two headings read alike, the source gives them in different places.

How the values were obtained:
[1] = target: ErbB2 WT (Homo sapiens (Human), UniProt P04626); experiment: ErbB enzyme assay (CisBio HTRF KinEASE-TK), Assay 2; assay type: biochemical
Method in brief: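 Readout is HTRF KinEASE-TK, using Sa-XL665 and cryptate antibody for 1 h at 22 °C, as percent of control between DMSO-only (100) and pre-quenched (0) reactions. The kinase reaction runs 30 min at 22 °C with 1 mM ATP and 250 nM biotinylated TK substrate, in HEPES pH 7.4 with MgCl2 and 2% DMSO.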

[2] = target: EGFR wild type (EGFR WT) (Homo sapiens (Human), UniProt P00533); experiment: Cellular phosphorylation assay, EGF-stimulated EGFR phosphorylation in engineered NIH 3T3 cells, Phospho-EGFR DuoSet IC ELISA, Assay 5; assay type: cell-based
Method in brief: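 Phospho-EGFR ELISA on lysates of engineered NIH 3T3 EGFR WT cells, IC50 derived from concentration curves. Cells plated at 20,000/well overnight, given compound dilutions 1 h at 37 °C, then rEGF 100 ng/ml for a further 10 min before lysis.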

[3] = target: ErbB2 with Exon 20 YVMA insertion (HER2-YVMA) (Homo sapiens (Human), UniProt P04626, INS775YVMA); experiment: Cellular phosphorylation assay, constitutive ErbB2 phosphorylation (Y1196) in engineered NIH 3T3 cells, Assay 4; assay type: cell-based
Method in brief: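 In-cell Western in NIH 3T3 cells carrying ErbB2 exon 20 YVMA insertion, with no ligand stimulation. One hour compound exposure at 37 °C before fixation and anti-pY1196 plus GAPDH staining with dual-wavelength fluorescence. IC50 derived after GAPDH normalization.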

[4] = target: EGFR (Homo sapiens (Human), UniProt P00533); experiment: ErbB enzyme assay (CisBio HTRF KinEASE-TK), Assay 3; assay type: biochemical
Method in brief: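 HTRF dual-wavelength read after 1 h detection; POC normalised to DMSO (100) and pre-quenched (0) controls, IC50 where 4-parameter curve crosses 50 POC. Reaction: 250 nM TK-substrate biotin, 1 mM ATP, pH 7.4 HEPES buffer with MgCl2, 30 min, 22 °C.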

[5] = target: ErbB2 insYVMA (HER2-YVMA, SEQ ID NO: 2) (Homo sapiens, UniProt P04626, INS775YVMA/P1170A); experiment: biochemical; conditions: ErbB2 insYVMA enzyme assay
Chain of ErbB2 insYVMA (HER2-YVMA, SEQ ID NO: 2) (P04626 with tags, fused parts or gaps INS775YVMA/P1170A limits assumed): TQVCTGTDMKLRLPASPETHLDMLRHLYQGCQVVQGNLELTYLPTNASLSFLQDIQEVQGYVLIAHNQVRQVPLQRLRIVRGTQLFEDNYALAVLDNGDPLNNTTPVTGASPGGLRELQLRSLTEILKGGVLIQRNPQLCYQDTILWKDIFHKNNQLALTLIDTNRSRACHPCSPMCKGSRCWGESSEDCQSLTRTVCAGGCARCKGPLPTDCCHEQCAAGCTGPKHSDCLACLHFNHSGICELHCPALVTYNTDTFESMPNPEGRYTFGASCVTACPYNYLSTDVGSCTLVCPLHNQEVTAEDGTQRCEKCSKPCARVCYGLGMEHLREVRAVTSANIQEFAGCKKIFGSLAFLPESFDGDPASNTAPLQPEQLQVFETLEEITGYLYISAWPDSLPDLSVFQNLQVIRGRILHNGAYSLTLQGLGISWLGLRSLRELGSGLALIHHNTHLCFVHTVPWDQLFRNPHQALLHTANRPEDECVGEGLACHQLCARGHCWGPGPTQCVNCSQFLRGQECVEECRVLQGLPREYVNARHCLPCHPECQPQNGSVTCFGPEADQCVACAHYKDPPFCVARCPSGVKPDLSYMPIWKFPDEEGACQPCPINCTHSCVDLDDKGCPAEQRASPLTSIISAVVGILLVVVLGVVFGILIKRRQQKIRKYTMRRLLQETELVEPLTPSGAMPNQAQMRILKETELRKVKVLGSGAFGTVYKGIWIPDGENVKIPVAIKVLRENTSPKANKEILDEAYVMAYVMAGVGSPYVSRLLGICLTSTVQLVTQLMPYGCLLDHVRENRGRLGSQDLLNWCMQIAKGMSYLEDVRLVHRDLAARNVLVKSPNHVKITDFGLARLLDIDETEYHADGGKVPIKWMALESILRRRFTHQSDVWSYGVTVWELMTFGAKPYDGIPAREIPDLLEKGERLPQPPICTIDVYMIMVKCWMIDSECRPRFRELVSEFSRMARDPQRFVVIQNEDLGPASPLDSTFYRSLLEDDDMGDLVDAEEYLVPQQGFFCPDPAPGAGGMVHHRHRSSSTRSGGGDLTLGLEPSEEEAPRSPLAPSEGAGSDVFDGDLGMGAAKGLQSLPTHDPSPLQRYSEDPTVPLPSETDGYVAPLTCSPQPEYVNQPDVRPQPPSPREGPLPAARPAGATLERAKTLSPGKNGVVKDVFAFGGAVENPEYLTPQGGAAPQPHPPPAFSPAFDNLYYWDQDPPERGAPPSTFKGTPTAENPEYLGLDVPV

Chain of EGFR wild type (EGFR WT) (P00533 25-1210): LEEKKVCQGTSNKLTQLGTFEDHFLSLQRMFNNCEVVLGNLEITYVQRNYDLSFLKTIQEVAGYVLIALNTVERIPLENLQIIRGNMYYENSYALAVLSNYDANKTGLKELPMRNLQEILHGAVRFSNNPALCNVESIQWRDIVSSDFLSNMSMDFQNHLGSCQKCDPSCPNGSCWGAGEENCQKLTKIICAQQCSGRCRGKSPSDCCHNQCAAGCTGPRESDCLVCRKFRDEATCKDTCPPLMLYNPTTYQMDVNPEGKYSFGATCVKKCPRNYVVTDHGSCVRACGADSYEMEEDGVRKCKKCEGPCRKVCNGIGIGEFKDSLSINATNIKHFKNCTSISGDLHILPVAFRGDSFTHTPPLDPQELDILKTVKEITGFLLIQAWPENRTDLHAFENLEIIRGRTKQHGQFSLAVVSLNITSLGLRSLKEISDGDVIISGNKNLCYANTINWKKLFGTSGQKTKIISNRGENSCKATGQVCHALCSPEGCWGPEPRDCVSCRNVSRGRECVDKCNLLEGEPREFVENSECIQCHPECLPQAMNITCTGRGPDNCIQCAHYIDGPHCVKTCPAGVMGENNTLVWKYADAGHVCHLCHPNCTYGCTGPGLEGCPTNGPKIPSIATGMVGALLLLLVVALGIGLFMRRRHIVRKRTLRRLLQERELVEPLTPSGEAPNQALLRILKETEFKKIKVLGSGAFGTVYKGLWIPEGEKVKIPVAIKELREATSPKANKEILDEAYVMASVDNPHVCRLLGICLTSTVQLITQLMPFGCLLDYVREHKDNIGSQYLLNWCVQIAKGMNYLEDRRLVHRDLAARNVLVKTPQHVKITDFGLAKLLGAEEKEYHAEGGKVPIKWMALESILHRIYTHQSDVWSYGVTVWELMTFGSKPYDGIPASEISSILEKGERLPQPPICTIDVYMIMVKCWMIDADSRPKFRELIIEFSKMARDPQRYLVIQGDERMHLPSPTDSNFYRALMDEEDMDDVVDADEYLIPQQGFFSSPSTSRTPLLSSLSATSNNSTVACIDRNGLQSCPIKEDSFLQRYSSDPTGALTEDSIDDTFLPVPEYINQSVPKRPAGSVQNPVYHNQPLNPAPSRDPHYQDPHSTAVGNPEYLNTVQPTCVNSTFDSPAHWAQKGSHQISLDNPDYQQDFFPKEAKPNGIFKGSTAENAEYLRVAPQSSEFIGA
Chain of EGFR (P00533 25-1210): as above
Chain of ErbB2 with Exon 20 YVMA insertion (HER2-YVMA) (P04626 other isoform, or with tags, fused parts or gaps ins YVMA behind 775): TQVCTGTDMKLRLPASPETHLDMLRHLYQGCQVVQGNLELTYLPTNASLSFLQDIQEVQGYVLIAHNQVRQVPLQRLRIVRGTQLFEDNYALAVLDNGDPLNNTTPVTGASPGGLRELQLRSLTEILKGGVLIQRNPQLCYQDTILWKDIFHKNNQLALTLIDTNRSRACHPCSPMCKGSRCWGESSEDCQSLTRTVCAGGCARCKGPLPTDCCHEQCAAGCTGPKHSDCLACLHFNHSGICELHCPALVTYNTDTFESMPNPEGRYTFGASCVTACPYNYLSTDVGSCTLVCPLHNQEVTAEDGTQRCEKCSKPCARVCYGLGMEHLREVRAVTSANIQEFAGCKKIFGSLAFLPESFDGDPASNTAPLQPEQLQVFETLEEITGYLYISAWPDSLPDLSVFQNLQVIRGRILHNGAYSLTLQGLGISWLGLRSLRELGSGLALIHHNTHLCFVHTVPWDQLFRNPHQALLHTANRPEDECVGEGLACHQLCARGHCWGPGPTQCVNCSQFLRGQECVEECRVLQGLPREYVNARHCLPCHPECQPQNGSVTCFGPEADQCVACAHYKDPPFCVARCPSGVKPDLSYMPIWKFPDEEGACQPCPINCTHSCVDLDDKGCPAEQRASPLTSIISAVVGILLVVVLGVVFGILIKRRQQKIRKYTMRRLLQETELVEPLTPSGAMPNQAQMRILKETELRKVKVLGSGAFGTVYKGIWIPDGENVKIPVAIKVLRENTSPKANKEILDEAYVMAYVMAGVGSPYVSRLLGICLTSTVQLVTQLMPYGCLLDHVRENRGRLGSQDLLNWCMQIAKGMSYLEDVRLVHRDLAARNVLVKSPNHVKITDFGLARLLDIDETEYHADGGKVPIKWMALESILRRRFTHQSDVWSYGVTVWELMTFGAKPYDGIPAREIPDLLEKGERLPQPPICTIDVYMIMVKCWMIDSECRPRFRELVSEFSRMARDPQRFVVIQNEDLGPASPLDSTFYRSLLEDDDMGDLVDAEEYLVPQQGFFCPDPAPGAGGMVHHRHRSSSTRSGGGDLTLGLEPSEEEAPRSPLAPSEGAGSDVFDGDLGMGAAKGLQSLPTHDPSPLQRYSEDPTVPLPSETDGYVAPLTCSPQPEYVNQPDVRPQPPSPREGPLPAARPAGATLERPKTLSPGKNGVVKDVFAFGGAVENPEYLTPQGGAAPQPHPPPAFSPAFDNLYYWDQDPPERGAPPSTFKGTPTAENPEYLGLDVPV

Row | SMILES | IC50 [1] [nM] | IC50 [2] [nM] | IC50 [3] [nM] | IC50 [4] [nM] | IC50 ([5]; read-out: Assay 1 IC50) [nM] | IC50 ([5]; Assay 1 IC50 (nM)) [nM]
1 | Cc1cc(Nc2ncnc3cnc(O[C@@H]4CNCC4(F)F)nc23)ccc1Oc1ccc2c(c1)ncn2C [Example 301] | 241 | ≥ 5000 | 60.8 | ≥ 10000 | 39.1 | 
2 | O[C@@H]1C[C@H]2C[C@@H]1CN2c1ncc2ncnc(Nc3ccc(Oc4ccn5ncnc5c4)c(Cl)c3)c2n1 [Example 332] | 50.5 | ≥ 5000 | 186 | ≥ 10000 | 48.6 | 
3 | CN(c1ncc2ncnc(Nc3ccc(Oc4ccn5ncnc5c4)c(Cl)c3)c2n1)C1COC1 [Example 424] | 19.4 | ≥ 5000 | 44.9 | 3930 | 16 | 
4 | Cc1cc(Nc2ncnc3cnc(N4C[C@@H](O)C5(CC5)C4)nc23)c(Cl)cc1Oc1ccc2c(c1)ncn2C [Example 488] | 174 | ≥ 5000 | 118 | ≥ 10000 | 73.8 | 
5 | Cc1cc(Nc2ncnc3cnc(N4CC5(CC5)CS4(=O)=O)nc23)ccc1Oc1ccc2c(c1)ncn2C [Example 264] | 42.4 | ≥ 5000 | 6.6 | ≥ 10000 | 35.1 | 
6 | Cc1cc(Nc2ncnc3cnc(N4CC(O)(C(F)F)C4)nc23)ccc1Oc1ccc2c(c1)ncn2C [Example 160, 3-(difluoromethyl)-1-(8-((3-methyl-4-((1-methyl-1H-benzo[d]imidazol-5-yl)oxy)phenyl)amino)pyrimido[5,4-d]pyrimidin-2-yl)azetidin-3-ol hydrochloride] | 67.2 | ≥ 5000 | 42.8 | 6760 |  | 20.3
7 | CC(=O)O[C@H]1CN(c2ncc3ncnc(Nc4ccc(Oc5ccc6c(c5)ncn6C)c(C)c4)c3n2)C[C@H]1F [Example 90, (3S,4R)-4-fluoro-1-(8-((3-methyl-4-((1-methyl-1H-benzo[d]imidazol-5-yl)oxy)phenyl)amino)pyrimido[5,4-d]pyrimidin-2-yl) pyrrolidin-3-yl acetate] | 93.1 | ≥ 5000 | 29 | ≥ 10000 | 41 | 
8 | Cc1cc(Nc2ncnc3cnc(N(C)CC4(O)CC4)nc23)ccc1Oc1ccn2ncnc2c1 [Example 385] | 40 | ≥ 5000 | 183 | 5150 | 18.5 | 
9 | Cc1cc(Nc2ncnc3cnc(N(C)[C@H]4CCOC4)nc23)ccc1Oc1ccn2ncnc2c1 [Example 381] | 9.4 | ≥ 5000 | 265 | 5040 | 15.4 | 
10 | Cc1cc(Nc2ncnc3cnc(NC(C)C)nc23)ccc1Oc1ccc2c(c1)ncn2C [Example 261] | 86.1 | ≥ 5000 | 21.9 | ≥ 10000 | 48.8 | 
11 | Cc1cc(Nc2ncnc3cnc(N4CCC(C)(C#N)C4)nc23)ccc1Oc1ccc2c(c1)ncn2C (stereo not drawn) [Example 475] | 88.6 | ≥ 5000 | 82.6 | ≥ 10000 | 22.4 | 
12 | CC1(C)CN(c2ncc3ncnc(Nc4ccc(Oc5ccn6ncnc6c5)c(Cl)c4)c3n2)CCO1 [Example 330] | 72.6 | ≥ 5000 | 197 | 8510 | 34.3 | 
13 | Cc1c(Oc2ccn3ncnc3c2)ccc(Nc2ncnc3cnc(N4CC[C@](C)(O)C4)nc23)c1F [Example 307] | 54.3 | ≥ 5000 | 1150 | ≥ 10000 | 28.3 | 
14 | Clc1cc(Nc2ncnc3cnc(N4CCO[C@H]5C[C@H]54)nc23)ccc1Oc1ccn2ncnc2c1 [Example 384] | 43 | ≥ 5000 | 91.5 | 4310 | 13.6 | 
15 | Cc1c(Oc2ccn3ncnc3c2)ccc(Nc2ncnc3cnc(N4CC[C@@H](O)C4)nc23)c1F [Example 312] | 54.2 | ≥ 5000 | 1590 | ≥ 10000 | 38.9 | 
